Test results from US11389497B2, “Pharmaceutical composition for treating cancer” (Institute of Advance Sciences, Inc., priority 2019, dated 2022).
Like-named read-outs stand apart in the source and are kept apart here.

How the values were obtained:
[1] = system: lysine acetyltransferase 7 (KAT 7); test: Immunoblot of nuclear fraction for histone acetyl transferases; assay type: cell-based, human; conditions: nuclear extract of ST88-14 cells, OSHP-1 50-300 ng/ml, 48 h
[2] = system: ST88-14 cells; test: Real-time quantitative PCR of tumorigenic genes in ST88-14 cells; assay type: cell-based, human; conditions: 48 h, normalized by GAPDH
Method: Effect of OSHP-1 on the expression of tumorigenic genes. To ascertain whether OSHP-1 decreased the proliferation of ST 88-14 cells, by decreasing the expression of tumorigenic genes, total RNA was isolated from the ST88-14 cells as well as normal Human Schwann cells treated with varying concentrations of OSHP-1 (for 48 h) mentioned above. The RNA was reverse transcribed to cDNA and subjected to quantitative PCR using reverse and forward primers of FAX2, FOXN4, IGF2 TLXI genes (Lee et 2014), and was normalized by the expression of GAPDH (FIG. 5A).

[3] = system: HDAC2; test: Immunoblot of nuclear fraction for NuRD components; assay type: cell-based, human; conditions: nuclear extract of ST88-14 cells, OSHP-1 50-300 ng/ml, 48 h
Text: CBP, KAT2A, KAT7 acetyl transferases and CHD4, MTA2, MBD2/3, HDAC2, GATA 2 (NuRD) components and b-actin antibodies.

[4] = system: human metastatic melanoma; test: Scratch assay in human metastatic melanoma; assay type: cell-based
[5] = system: ST88-14 cells; test: Soft Agar colony formation assay (anchorage independent growth); assay type: cell-based, human; conditions: colonies counted manually
Text: FIG. 7A illustrates a report on effect of OSHP-1 on anchorage independent growth or metastasis, in accordance with an exemplary embodiment of the present disclosure: To determine whether OSHP-1 and its individual components can block the anchorage independent growth of ST88-14 cells, and Normal Human Schwann Cells, by subjecting the cells to Soft Agar colony formation assays the absence and presence of (A) OSHP-1.
FIG. 7B illustrates a report on AA, RA, CA and mixture of three, and the colonies were counted manually, in accordance with an exemplary embodiment of the present disclosure.
(§1) Effect of OSHP-1 on anchorage independent growth or metastasis. To determine whether OSHP-1 and its individual components can block the anchorage independent growth of ST-8814 cells, and Normal Human Schwann by subjecting the cells to Soft Agar colony formation assays in the absence and presence of OSHP-1, AA, RA, CA and mixture of three, and the colonies were counted manual. […] Additionally, we also tested whether OSHP-1 and AA, RA, and CA affect the invasiveness of human metastatic melanoma.

[6] = system: ST88-14 cells; test: Scratch assay in ST88-14 cells; assay type: cell-based, human
Text: FIG. 7C illustrates a report on a scratch assay protocol performed using ST88-14 cells in the absence or presence of OSHP-1, AA, RA, CA, in accordance with an exemplary embodiment of the present disclosure.
as §1

[7] = system: ST88-14 cells; test: MTS cell viability / proliferation assay; assay type: cell-based, human; conditions: OSHP-1 50-300 ng/ml, 0-72 h
Method: FIG. 4 illustrates a report on cell Viability Assays using the MTS Assay Kit (Colorimetric) (ab 197010) Cell proliferation, in accordance with an exemplary embodiment of the present disclosure. As shown, viability and cytotoxicity was assessed on cells. Cells were treated with the appropriate concentrations of OSHP-1 for 24, 48 and 72 h.
Effect of OSHP-1 on Cell proliferation: We performed MTS assays using cells and treated with increasing concentrations of OSHP-1 (50-300 ng/ml) for 0-72 h.

Row | lysine acetyl transferase KAT 7 activity / levels [1] | Compound | FAX2 (PAX2) expression [2] | IGF2 expression [2] | TLXI (TLX2) expression [2] | HDAC2 activity / levels [3] | migration of cells in scratch assay [4] | anchorage independent growth [5] | invasion and metastasis in scratch assay [6] | invasion and metastasis in scratch assay ([6]; listed as RA) | FOXN4 expression [2] | viability and proliferation of ST88-14 cells [7]
1 | decreased | O=C1O[C@H]([C@@H](O)CO)C(O)=C1O [ascorbic acid] | down-regulated | down-regulated | down-regulated | increased |  |  |  |  |  | 
2 |  | O=C(/C=C/c1ccc(O)c(O)c1)O[C@H](Cc1ccc(O)c(O)c1)C(=O)O [rosmarinic acid] | down-regulated | down-regulated | down-regulated |  | the one contributing to this property | responsible for the blocking of anchorage independent growth | decreased metastasis | responsible for the blocking of anchorage independent growth, invasion and metastasis of MPNSTs |  | 
3 | decreases | caffeoylquinic acid | down-regulated | down-regulated |  |  |  |  |  |  | down-regulated | 
4 |  | CN1c2c(nc(N)[nH]c2=O)NCC1CNc1ccc(C(=O)N[C@@H](CCC(=O)O)C(=O)O)cc1 (some centres unmarked) [MTHF, 5-methyl tetra hydro folate] |  |  |  |  |  |  |  |  |  | increases the cell proliferation
